From ChEMBL document CHEMBL1138833, “Enantioselective synthesis and biological activity of (3S,4R)- and (3S,4S)-3-hydroxy-4-hydroxymethyl- 4-butanolides in relation to PGE2” (J Med Chem, 2004)

Key:
[1] = target: Prostaglandin E2 receptor EP2 subtype (Homo sapiens) (UniProt P43116); assay: The percentage decrease in the binding of [3H]PGE2, in the presence of 1000 uM of compound
[2] = target: Prostaglandin E2 receptor EP2 subtype (Homo sapiens) (UniProt P43116); assay: The percentage decrease in the binding of [3H]PGE2, in the presence of 125 uM of compound

Prostaglandin E2 receptor EP2 subtype (Homo sapiens), sequence (P43116 whole entry): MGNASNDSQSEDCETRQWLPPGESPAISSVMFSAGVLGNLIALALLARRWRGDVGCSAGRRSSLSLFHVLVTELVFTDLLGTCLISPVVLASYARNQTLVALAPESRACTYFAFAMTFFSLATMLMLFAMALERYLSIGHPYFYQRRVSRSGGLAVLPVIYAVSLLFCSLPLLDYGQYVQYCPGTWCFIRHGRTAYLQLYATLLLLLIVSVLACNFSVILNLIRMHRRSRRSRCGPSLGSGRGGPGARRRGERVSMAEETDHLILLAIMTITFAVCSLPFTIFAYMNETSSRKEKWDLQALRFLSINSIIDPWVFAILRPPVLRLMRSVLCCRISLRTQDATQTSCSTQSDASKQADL

| Compound | Decrease [1] [%] | Decrease [2] [%] |
| --- | --- | --- |
| O=C1C[C@H](O)[C@@H](CO)O1 | 33 | 78 |
| O=C1C[C@H](O)[C@H](CO)O1 | 73 | – |
